Literature values as cited in patent US8613946B2, “Carotenoids of enhanced bioavailability” (ISP Investment Inc., priority 2006, dated 2013).
Read-outs that look alike come from different tables or passages of the source.

[1] = classification of The Merck Index

For `CC(C)=CCC/C(C)=C/C=C/C(C)=C/C=C/C(C)=C/C=C/C=C(C)/C=C/C=C(C)/C=C/C=C(\C)CCC=C(C)C` [lycopene], the solubility in water (statement of The PDR For Nutritional Supplements) is listed as “insoluble in water”.
In the case of `CC1=C(/C=C/C(C)=C/C=C/C(C)=C/C=C/C=C(C)/C=C/C=C(C)/C=C/C2=C(C)CCCC2(C)C)C(C)(C)CCC1` [β-carotene], the solubility in water [1] is given as “practically insoluble in water”.
In the case of `CC1=C[C@H](O)CC(C)(C)[C@H]1/C=C/C(C)=C/C=C/C(C)=C/C=C/C=C(C)/C=C/C=C(C)/C=C/C1=C(C)C[C@@H](O)CC1(C)C` [lutein], the solubility in water [1] is given as “insoluble in water”.
For `CC1=CCCC(C)(C)C1/C=C/C(C)=C/C=C/C(C)=C/C=C/C=C(C)/C=C/C=C(C)/C=C/C1=C(C)CCCC1(C)C` (stereo not drawn) [α-carotene], the solubility in water [1] is listed as “practically insoluble in water”.
